Measured values as given in PMC9227096, “Design, Synthesis, and In Vitro, In Silico and In Cellulo Evaluation of New Pyrimidine and Pyridine Amide and Carbamate Derivatives as Multi-Functional Cholinesterase Inhibitors” (Pharmaceuticals, 2022).
Read-outs that look alike come from different tables or passages of the source.

Experiments:
equine BChE (eqBChE) = target: T1, equine BChE (eqBChE) (Equus caballus, UniProt P81908); assay: Ellman's spectrophotometric method, percent inhibition of eqBChE (zero time and after 1 h incubation); type: biochemical; conditions: read-out: % Inhibition vs. eqBChE ± SD; for inhibition at 9 µM: [I] 9 µM
T1 construct: purchased Sigma-Aldrich (Milan, Italy)
Method: Regarding the synthesized compounds enzymatic inhibition studies were carried out on Electrophorus electricus AChE (EeAChE) and equine BChE (eqBChE), according to Ellman’s spectrophotometric method.
All other chemical and biological reagents and solvents used were of the highest analytical, commercially available grade. The water, utilized for the preparation of the phosphate buffer and of the solutions of compounds, was distilled and filtered on nylon membrane filters with 0.2 μm pore size with the Millipore® Filtration apparatus before each use. Micropipettes Labmate (BRAND Dig. 10–100 μL; Dig. 100–1000 μL; Dig. 0.1–2 μL) and Transferpette (HIGH TECH LAB LM200: 20–200 μL; LM5000: 1000–5000 μL) were used to collect the samples. The assays were carried out by double beam UV–Vis Lambda 40 Perkin Elmer spectrophotometer, using optical polystyrene cuvettes (10 × 10 × 45 mm, 340–800 nm optical transparency), each measure was repeated at least in triplicate. […] Vivaspin® 2 Sartorius, with a membrane of 3000 MWCO (molecular weight cutoff) consisting of polyethersulfone (PES), cellulose triacetate (CTA) and hydrosart, was used for the ultrafiltration procedures. An ALC PK110 bench-top centrifuge was used for centrifugation. The spectrophotometric method of Ellman, with minor modifications, was used to evaluate the inhibition of cholinesterase enzymes. […] EeAChE and eqBChE were periodically tested to evaluate the effective enzymatic activity.
An amount of 3.0 mL of a solution in 0.1 M phosphate buffer (pH = 7.4) containing DTNB (0.25 mM) and EeAChE (0.083 UmL^−1) or eqBChE (0.083 UmL^−1) were placed in a polystyrene cuvette of 1.0 cm path length; 1 µL of a solution in DMSO of the tested compound was added to obtain in cuvette concentration range 9 µM–0.09 µM. With this solution the blank was made.
Each experiment was repeated at least in triplicate.
The cuvettes were prepared consecutively at intervals of 3 min to allow equal incubation times.

tau protein = target: T2, tau protein (Homo sapiens, UniProt P10636); assay: Inhibition of tau aggregation in intact E. coli cells, thioflavin-S staining; type: cell-based, Escherichia coli; conditions: [I] = 100 µM, E. coli cells overexpressing tau
T2 construct: expressed in transfected cells; host or cells: E. coli BL21 (DE3) with pTARA (T7 RNA polymerase under PBAD) and pRKT42
Method: For compounds 12, 14 and 18, the inhibitory activity against Aβ42 and tau aggregation was evaluated. The anti-aggregating effect of tested compounds was monitored by a cell-based assay in intact Escherichia coli cells that overexpress either Aβ42 peptide or tau protein, which, upon expression, form insoluble inclusion bodies that were stained with thioflavin-S [42]. The percentages of inhibition towards Aβ42 and tau aggregation were determined at an inhibitor concentration of 100 µM and the obtained results are reported in Table 6. In general, these compounds show a weak anti-aggregating activity; among these, the pyridine carbamate 18 is the best inhibitor of aggregation of both Aβ42 and tau.
E. coli BL21 (DE3) competent cells were transformed with pTARA containing the RNA-polymerase gene of T7 phage (T7RP), under the control of the promoter PBAD. E. coli BL21 (DE3), with pTARA competent cells, were transformed with the pRKT42 vector encoding four repeats of the tau protein in two inserts. For overnight culture preparation, 10 mL of the M9 medium containing 0.5% of glucose, 50 μg·mL^−1 of ampicillin, and 12.5 μg·mL^−1 of chloramphenicol was inoculated with a colony of BL21 (DE3) bearing the plasmids to be expressed at 37 °C. […]
Th-S (T1892) and other chemical reagents were purchased from Sigma (St. Louis, MO, USA). […] Th-S fluorescence and absorbance were tracked using a DTX 800 plate reader Multimode Detector equipped with a Multimode Analysis Software (Beckman-Coulter, Indianapolis, IN, USA). […] A filter of 535/25 nm was also used for the absorbance determination. To normalize the Th-S fluorescence as a function of the bacterial concentration, OD600 was obtained using a Shimadzu UV-2401 PC UV–Vis spectrophotometer (Shimadzu, Japan). Note that the fluorescence normalisation was carried out considering 100% of the Th-S fluorescence of the bacterial cells expressing the peptide or protein in the absence of the drug and 0% of the Th-S fluorescence of the bacterial cells not expressing the peptide or protein. […]

[1] = [I] 900 nM, 0.0833 U/mL enzyme, 100 µM acetylthiocholine
[2] = 0.0833 U/mL enzyme, 100 µM acetylthiocholine

T1 sequence (P81908 whole entry): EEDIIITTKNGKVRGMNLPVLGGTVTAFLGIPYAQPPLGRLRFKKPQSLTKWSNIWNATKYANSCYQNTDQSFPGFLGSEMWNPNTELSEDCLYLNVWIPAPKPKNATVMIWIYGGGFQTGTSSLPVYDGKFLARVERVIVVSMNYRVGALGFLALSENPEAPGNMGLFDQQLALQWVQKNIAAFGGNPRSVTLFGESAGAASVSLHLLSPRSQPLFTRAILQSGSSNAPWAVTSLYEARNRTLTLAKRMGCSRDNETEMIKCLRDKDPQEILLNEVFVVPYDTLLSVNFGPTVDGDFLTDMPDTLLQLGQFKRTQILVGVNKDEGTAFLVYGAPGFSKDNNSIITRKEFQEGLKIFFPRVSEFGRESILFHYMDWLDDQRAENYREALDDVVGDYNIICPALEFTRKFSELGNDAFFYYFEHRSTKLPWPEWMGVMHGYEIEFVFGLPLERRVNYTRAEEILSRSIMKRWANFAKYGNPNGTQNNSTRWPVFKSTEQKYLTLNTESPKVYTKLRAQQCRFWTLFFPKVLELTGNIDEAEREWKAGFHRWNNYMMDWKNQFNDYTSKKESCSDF
T2 sequence (P10636 1-441 isoform P10636-8): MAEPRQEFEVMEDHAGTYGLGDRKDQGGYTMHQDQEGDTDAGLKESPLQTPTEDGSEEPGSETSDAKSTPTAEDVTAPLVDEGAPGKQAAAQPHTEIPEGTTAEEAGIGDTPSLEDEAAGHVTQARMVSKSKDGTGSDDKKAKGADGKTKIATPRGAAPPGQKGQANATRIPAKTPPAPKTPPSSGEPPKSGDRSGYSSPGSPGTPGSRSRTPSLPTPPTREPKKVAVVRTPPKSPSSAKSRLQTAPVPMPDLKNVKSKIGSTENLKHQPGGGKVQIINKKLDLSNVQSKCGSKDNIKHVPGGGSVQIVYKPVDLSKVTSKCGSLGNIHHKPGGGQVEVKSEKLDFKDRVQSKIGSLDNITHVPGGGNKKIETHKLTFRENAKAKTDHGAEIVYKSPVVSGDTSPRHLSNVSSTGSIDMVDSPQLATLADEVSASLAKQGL

| SMILES | inhibition at 0.9 µM (equine BChE (eqBChE); [1]) [%] | inhibition at 9 µM (equine BChE (eqBChE); [2]) [%] | inhibition at 100 µM (tau protein) [%] | inhibition at 0.9 µM (equine BChE (eqBChE); 1 h, [I] = 900 nM, t = 1 h incubation at 25 °C) [%] |
| --- | --- | --- | --- | --- |
| O=C(NCCCCCCNc1ccccn1)c1ccccc1 [Compound 12, N-(6-(pyridin-2-ylamino)hexyl)benzamide] | 22 | 81 | 11 | – |
| O=C(Cc1ccc(Oc2ccccc2)cc1)NCCCCCCNc1ccccn1 [Compound 14, 2-(4-phenoxyphenyl)-N-(6-(pyridin-2-ylamino)hexyl)acetamide] | 45 | 88 | 10.9 | – |
| O=C(NCCCCCCNc1ccccn1)Oc1ccccc1 [Compound 18, Phenyl (6-(pyridin-2-ylamino)hexyl)carbamate] | – | – | 15.7 | 79.6 ± 5.3 |
